Test results reported in US12084473B2, “β-D-2′-deoxy-2′-α-fluoro-2′-β-C-substituted-2-modified-N6-substituted purine nucleotides for HCV treatment” (Atea Pharmaceuticals, Inc., priority 2015, dated 2024).
Where two headings read alike, the source gives them in different places.

Key:
[1] = system: HCV genotype 1b luciferase reporter replicon; assay: microbe, parasite or virus in culture; assay type: cell-based
Procedure: (§1) The plates were cultured for 24 hours prior to the addition of compounds. Six serial one half log dilutions of the test articles (high test concentration of 100.0 μM or high test concentration of 1.0 μM) and human interferon-alpha2b (high test 10.0 U/ml) were prepared in cell culture medium and added to the cultured cells in triplicate wells for each dilution. Six wells in the test plates received medium alone as an untreated control. Following 72 hours of culture in the presence of compound, one of the plates was used for the determination of cytotoxicity by staining with XTT and the other for antiviral efficacy by determination of luciferase reporter activity. Cytotoxicity and efficacy data were collected and imported into a customized Excel workbook for determination of the TC50 and EC50 values. […] The y-axis is the percent of virus control and the x-axis is the concentration of drug in μM. […] The y-axis is the percent of virus control and the x-axis is the concentration of drug in M.

[2] = system: HCV Genotype 1a, NS5B Mutation none; assay: microbe, parasite or virus in culture; assay type: cell-based
Procedure: (§2) Various patient-derived HCV genotypes containing wild-type and resistance-associated variants were used to determine their relative replication sensitivity to test compounds. Replicon resistance test vectors (RTVs) containing the NS5B genomic regions were prepared using viral RNA isolated from plasma of HCV patients. Each NS5B region was amplified by reverse-transcription polymerase chain reaction and cloned into an HCV replicon RTV which was then transferred by electroporation into Huh-7 cells.

[3] = system: HCV Genotype 4a, NS5B Mutation none; assay: microbe, parasite or virus in culture; assay type: cell-based
Procedure: as §2

[4] = system: HCV Genotype 2b, NS5B Mutation none; assay: microbe, parasite or virus in culture; assay type: cell-based
Procedure: as §2

[5] = system: HCV Genotype 3a-1, NS5B Mutation none; assay: microbe, parasite or virus in culture; assay type: cell-based
Procedure: as §2

[6] = system: HCV Genotype 2a, NS5B Mutation none; assay: microbe, parasite or virus in culture; assay type: cell-based
Procedure: as §2

[7] = system: HCV Genotype 1a, NS5B Mutation L159F; assay: microbe, parasite or virus in culture; assay type: cell-based
Procedure: as §2

[8] = system: HCV Genotype 1b, NS5B Mutation C316N; assay: microbe, parasite or virus in culture; assay type: cell-based
Procedure: as §2

[9] = system: HCV Genotype 1a, NS5B Mutation L159F and S282T; assay: microbe, parasite or virus in culture; assay type: cell-based
Procedure: as §2

[10] = system: HCV Genotype 4d, NS5B Mutation none; assay: microbe, parasite or virus in culture; assay type: cell-based
Procedure: as §2

[11] = system: HCV Genotype 1b, NS5B Mutation none; assay: microbe, parasite or virus in culture; assay type: cell-based
Procedure: as §2

[12] = system: HCV Genotype 3a-2, NS5B Mutation none; assay: microbe, parasite or virus in culture; assay type: cell-based
Procedure: as §2

iPS Cardiomyocytes = assay: iPS Cardiomyocyte Assay; assay type: cell-based, human; conditions: 3 days, XTT
Procedure: iPS Cardiomyocytes (Cellular Dynamics) were seeded in microliter plates at 1.5×10^4 cells per well. After 48-hr incubation, cells were washed and maintenance medium containing serially diluted TA was added in triplicate. After incubating for an additional 3 days, cell viability was measured by staining with XTT and CC50 values were calculated.

[13] = Cytotoxicity by XTT staining in replicon cells; conditions: human
Procedure: as §1

Huh-7 luc/neo ET cells = assay: Cytotoxicity by XTT staining in replicon cells
Procedure: as §1

HCV S282T replicon = assay: microbe, parasite or virus in culture; assay type: cell-based
Procedure: (§3) A transient transfection assay was performed to determine the sensitivity of the […] of HCV to test compounds. Huh-7 cells were electroporated in the presence of RNA transcribed from wild type or S282T HCV replicon plasmids from the T7 promoter. The transfected cells were seeded in to 96-well plates at 7.5×10^3 cells per well in Dulbecco's Modified Eagle's medium. After 24 hr of incubation, medium was removed and replaced with fresh medium containing no or various concentrations of test compounds. Following an additional 96-hr incubation, the anti-HCV activity was measured by luciferase endpoint with Britelite™ Plus luminescence reporter gene kit (Perkin Elmer, Shelton, CT). Duplicate plates were treated and incubated in parallel for assessment of cellular toxicity by staining with the tetrazolium dye XTT.

HCV wild type replicon = assay: microbe, parasite or virus in culture; assay type: cell-based
Procedure: as §3

[14] = Hepatitis C virus, read-out: IC50 Value
[15] = genotype 3a-1, no NS5B mutation
[16] = genotype 1a, NS5B L159F and S282T
[17] = Hepatitis C virus, 96 h, read-out: IC50 Value
[18] = genotype 3a-2, no NS5B mutation

For `CC(C)OC(=O)[C@H](C)N[P@](=O)(OCC1O[C@@H](n2cnc3c(N(C)C)nc(N)nc32)[C@](C)(F)[C@@H]1O)Oc1ccccc1` (stereo partly drawn) [Compound 25, isopropyl ((((S)-(2R,3R,4R,5R)-5-(2-amino-6-(dimethylamino)-9H-purin-9-yl)-4-fluoro-3-hydroxy-4-methyltetrahydrofuran-2-yl)methoxy)-phenoxy-phosphoryl)-L-alaninate], the “fold increase in activity (versus parent nucleoside)” value [1] was ≥ 2,600, the EC95 ([1]; Hepatitis C virus, Huh-7 luc/neo ET cells, 72 hours, luciferase, read-out: HCV Replicon EC50/EC95: EC95) was 19 nM and the EC50 ([1]; Hepatitis C virus, read-out: EC50 in a replicon assay) was 4 nM. For the same compound, the “Fold increase in activity compared to parent nucleoside” value ([1]; Table 7) was >2,600, the IC50 [2, 14] was 4.4 nM and the “Fold Change in IC50 from Sofosbuvir” value ([2]; genotype 1a, no NS5B mutation) was 14.2. For the same compound, the “Fold Change in IC95 from Sofosbuvir” value ([2]; genotype 1a, no NS5B mutation) was 16.2, the “IC95 Value” ([2]; genotype 1a, no NS5B mutation) was 31.3 nM and the IC50 [3, 14] was 4.6 nM. The “Fold Change in IC50 from Sofosbuvir” value ([3]; genotype 4a, no NS5B mutation) was 16.2, the “Fold Change in IC95 from Sofosbuvir” value ([3]; genotype 4a, no NS5B mutation) was 20.7 and the “IC95 Value” ([3]; genotype 4a, no NS5B mutation) was 33.0 nM. The IC50 [4, 14] was 3 nM, the “Fold Change in IC50 from Sofosbuvir” value ([4]; genotype 2b, no NS5B mutation) was 15.2 and the “Fold Change in IC95 from Sofosbuvir” value ([4]; genotype 2b, no NS5B mutation) was 19.9. For the same compound, the “IC95 Value” ([4]; genotype 2b, no NS5B mutation) was 14.9 nM, the IC50 [5, 14] was 5.1 nM and the “Fold Change in IC50 from Sofosbuvir” value [5, 15] was 24.5. For the same compound, the “Fold Change in IC95 from Sofosbuvir” value [5, 15] was 24.8, the “IC95 Value” [5, 15] was 27.8 nM and the IC50 [6, 14] was 2.7 nM. For the same compound, the “Fold Change in IC50 from Sofosbuvir” value ([6]; genotype 2a, no NS5B mutation) was 8.4, the “Fold Change in IC95 from Sofosbuvir” value ([6]; genotype 2a, no NS5B mutation) was 8.8 and the “IC95 Value” ([6]; genotype 2a, no NS5B mutation) was 22.2 nM. For the same compound, the “cross-resistance to L159F mutant” value [7] was “neither 25, 27 nor 5-2 compound showed any evidence of cross-resistance”, the IC50 [7, 14] was 5.2 nM and the “Fold Change in IC50 from Sofosbuvir” value ([7]; genotype 1a, NS5B L159F) was 22.0. The “Fold Change in IC95 from Sofosbuvir” value ([7]; genotype 1a, NS5B L159F) was 26.4, the “IC95 Value” ([7]; genotype 1a, NS5B L159F) was 40.4 nM and the “cross-resistance to C316N mutant” value [8] was “neither 25, 27 nor 5-2 compound showed any evidence of cross-resistance”. The IC50 [8, 14] was 3.2 nM, the “Fold Change in IC50 from Sofosbuvir” value ([8]; genotype 1b, NS5B C316N) was 23.1 and the “Fold Change in IC95 from Sofosbuvir” value ([8]; genotype 1b, NS5B C316N) was 26.2. For the same compound, the “IC95 Value” ([8]; genotype 1b, NS5B C316N) was 18.1 nM, the “cross-resistance to L159F and S282T mutant” value [9] was “neither 25, 27 nor 5-2 compound showed any evidence of cross-resistance” and the IC50 [9, 14] was 17.2 nM. The “Fold Change in IC50 from Sofosbuvir” value [9, 16] was 94.0, the “Fold Change in IC95 from Sofosbuvir” value [9, 16] was 107.0 and the “IC95 Value” [9, 16] was 158.5 nM. The IC50 [10, 17] was 5.9 nM, the “Fold Change in IC50 from Sofosbuvir” value ([10]; genotype 4d, no NS5B mutation) was 16.0 and the “Fold Change in IC95 from Sofosbuvir” value ([10]; genotype 4d, no NS5B mutation) was 23.1. For the same compound, the “IC95 Value” ([10]; genotype 4d, no NS5B mutation) was 44.2 nM, the IC50 [11, 14] was 5.9 nM and the “Fold Change in IC50 from Sofosbuvir” value ([11]; genotype 1b, no NS5B mutation) was 1.0. The “Fold Change in IC95 from Sofosbuvir” value ([11]; genotype 1b, no NS5B mutation) was 20.0, the “IC95 Value” ([11]; genotype 1b, no NS5B mutation) was 32.0 nM and the IC50 [12, 14] was 4.7 nM. The “Fold Change in IC50 from Sofosbuvir” value [12, 18] was 26.3, the “Fold Change in IC95 from Sofosbuvir” value [12, 18] was 33.4 and the “IC95 Value” [12, 18] was 24.2 nM. For the same compound, the “cytotoxicity against iPS cardiomyocytes in vitro” value (iPS Cardiomyocytes) was “no cytotoxicity”, the CC50 at 72 h [13] was > 100000 nM and the CC50 (Huh-7 luc/neo ET cells; read-out: HCV Replicon CC50, XTT, 72 hours) was > 100000 nM. For the same compound, the CC50 (Huh-7 luc/neo ET cells; read-out: TC50, FIG. 3 legend) was > 100000 nM, the “cross-resistance to S282T variant” value (HCV S282T replicon) was “neither 25, 27, nor 5-2 compounds showed any evidence of cross-resistance” and the IC50 (HCV S282T replicon; [17]) was < 1 nM. For the same compound, the “Fold Change in IC50 from Sofosbuvir” value (HCV S282T replicon; NS5B Mutation S282T) was >278, the “Fold Change in IC95 from Sofosbuvir” value (HCV S282T replicon; NS5B Mutation S282T) was >106.4 and the IC95 Value (HCV S282T replicon; NS5B Mutation S282T, transient assay, 96-hr) was 9.4 nM. The IC95 Value (HCV wild type replicon) was 2.7 nM, the IC50 (HCV wild type replicon; [17]) was < 1 nM and the “Fold Change in IC50 from Sofosbuvir” value (HCV wild type replicon; NS5B Mutation None) was >36.4. The “Fold Change in IC95 from Sofosbuvir” value (HCV wild type replicon; NS5B Mutation None) was 80.7.
